Assay results: patent publication US5989846A, “Assays to identify inducers of plant defense resistance” (Rutgers, The State University of New Jersey, priority 1995, dated 1999)

How the values were obtained:
[1] = target: cucumber salicylic acid binding protein; assay: Salicylic acid binding activity from cucumber; settings: cucumber derived salicylic acid binding protein
Description: Several, of the MAbs that bind to the tobacco 57 kDa protein and 280 kDa complex also recognize a 57 kDa protein in fresh homogenates from cucumbers. The salicylic acid binding activity from cucumber has similar affinity (Kd) and specificity as the tobacco salicylic acid binding protein. Like the tobacco salicylic acid binding protein, the cucumber salicylic acid binding protein also has a large native molecular weight (approximately 200 kDa). Thus, it appears that the cucumber salicylic acid binding protein is also a complex composed of multiple subunits at least one of which is probably the 57 kDa protein recognized by the MAbs made against the tobacco salicylic acid binding protein. It should be noted, however, that there may be some minor variation in molecular weight and Kd for salicylic acid binding protein from one plant species to the next. For example, cucumber derived salicylic acid binding protein appears to have an apparent average native molecular weight of about 200 kDa and a Kd of about 30±5 μM.

catalase = assay: Catalase activity of crude extracts; format: biochemical
Description: In the presence of SA, the catalase activity of the highly purified SABP was inhibited by 80% (Table 6). A similar level of inhibition of catalase activity by SA (^- 70%) was also observed with crude extracts; inhibition appeared to be reversible since the catalase activity could be largely recovered by extensive dialysis. To assess the functional relevance of catalase inhibition by SA, several SA analogues, with or without biological activity in inducing plant PR genes and disease resistance, were compared for their ability to inhibit the catalase activity of SABP (Table 6).

SABP = system: SABP; set-up: concentration or dose not given beside the values; settings: Table 6; previously published data (Chen et al. 1993); cited from earlier work
guaiacol peroxidases = assay: Guaiacol peroxidase activity in tobacco leaf extracts; format: biochemical, Nicotiana tabacum cv. Xanthi nc
Protocol: Inhibition of peroxidase by SA and INA was determined by measuring the enzyme activities in extracts prepared from tobacco leaves in the absence or presence of 100 μM or 1000 μM SA or INA. Two grams of leaves from 6-8 week old tobacco plants (Nicotiana tabacum cv. Xanthi nc) grown at 22° C. in a 14 hr light cycle were homogenized under liquid nitrogen using a pestle and mortar.
Total guaiacol peroxidase activity was extracted with 100 mM potassium phosphate, pH 6.2, containing 1% (weight/volume) polyvinylpyrrolidone. In order to also extract the ionically bound cell wall isozymes, the extraction buffer was supplemented with 600 mM KCl. Extraction and centrifugation steps were as described for ascorbate peroxidase. After removal of cell debris and ammonium sulfate precipitation (85%), the extract was desalted against 50 mM potassium phosphate, pH 6, containing 25% glycerol. The extract could be stored at -20° C. without significant loss of peroxidase activity.
(§1) Guaiacol peroxidase activity was determined by the method of Chance and Maehly (Methods Enzymol. 2: 764 (1955)) using guaiacol as the substrate.
(§2) The formation of tetraguaiacol was monitored at 470 nm. The reaction mixture contained 0.25% guaiacol and 100 mM hydrogen peroxide in 20 mM potassium phosphate, pH 6.2. The amount of protein per 1 ml assay was […]. The reaction was measured for five minutes. The assay for horseradish peroxidase was identical, except that only 0.2-0.5 μg protein was used.

[2] = target: T1, catalase activity of SABP (Nicotiana tabacum, UniProt P49319); assay: Catalase activity of highly purified SABP (luminol method); format: biochemical, tobacco; settings: 0.05 h; 1 mM SA or analogue, 1 mM H2O2, 500 ng highly purified SABP
T1 sequence (P49319 1-492): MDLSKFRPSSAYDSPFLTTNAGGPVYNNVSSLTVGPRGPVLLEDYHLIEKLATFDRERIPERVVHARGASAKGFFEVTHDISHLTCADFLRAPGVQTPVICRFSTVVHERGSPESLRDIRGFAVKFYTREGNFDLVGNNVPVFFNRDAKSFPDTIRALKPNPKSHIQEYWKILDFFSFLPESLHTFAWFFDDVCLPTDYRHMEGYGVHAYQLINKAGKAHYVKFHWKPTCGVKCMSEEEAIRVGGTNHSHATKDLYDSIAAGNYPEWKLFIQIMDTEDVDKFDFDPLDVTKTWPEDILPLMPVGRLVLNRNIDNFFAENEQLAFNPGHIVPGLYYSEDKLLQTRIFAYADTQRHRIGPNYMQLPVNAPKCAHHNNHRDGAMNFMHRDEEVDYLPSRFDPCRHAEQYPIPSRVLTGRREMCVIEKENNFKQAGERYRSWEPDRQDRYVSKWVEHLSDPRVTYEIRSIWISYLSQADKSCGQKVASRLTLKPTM
Procedure, shortened: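 H2O2 remaining was sampled every 30 s from purified SABP reactions, with or without SA or analogues. Measured by luminol chemiluminescence triggered by 0.5 mM K3Fe(CN)6 in 0.2N NH4OH, pH 9.5, and quantified against an H2O2 standard curve; first-order rate constants calculated.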

horseradish peroxidase = target: T2, horseradish peroxidase (Armoracia rusticana, UniProt P00433); assay: Horseradish peroxidase activity; format: biochemical
T2 construct: purchased Sigma
T2 sequence (P00433 31-353): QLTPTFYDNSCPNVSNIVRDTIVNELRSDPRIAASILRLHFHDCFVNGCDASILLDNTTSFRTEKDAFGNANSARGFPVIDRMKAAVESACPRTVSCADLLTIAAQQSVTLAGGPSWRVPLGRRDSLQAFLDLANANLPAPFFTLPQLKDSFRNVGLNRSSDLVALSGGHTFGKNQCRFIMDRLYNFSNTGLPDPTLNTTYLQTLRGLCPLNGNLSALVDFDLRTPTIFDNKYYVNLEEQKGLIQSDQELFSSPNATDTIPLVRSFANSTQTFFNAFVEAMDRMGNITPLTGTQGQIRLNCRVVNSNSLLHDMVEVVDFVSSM
Protocol: Horseradish peroxidase (1 mg; obtained from Sigma) was dissolved in 1.5 ml 200 mM potassium phosphate, pH 6.2, containing 150 mM NaCl. Following a 15 minute incubation at room temperature, the enzyme solution was centrifuged (10,000 g, 10 minutes). After buffer exchange (PD-10, equilibrated with 25 mM potassium phosphate, pH 6.2), the protein concentration was adjusted to 0.5 mg/ml.
as §1, §2

Compound: O=C(O)c1ccccc1O [salicylic acid, 2-hydroxybenzoic acid]
- Kd [1]: ~30 µM
- Inhibition of catalase activity (catalase; crude extracts): ~70%
- Reversibility of catalase inhibition (catalase; extensive dialysis): reversible
- Inhibition (%) [14C]SA binding (SABP): 89%
- Activity (guaiacol peroxidases; POX, 100 μM compound): 2.7 ± 0.3 μmols of oxidized substrate mi
- Inhibition (guaiacol peroxidases; POX, 100 μM compound): 3%
- Activity (guaiacol peroxidases; POX, 1,000 μM compound): 2.7 ± 0.4 μmols of oxidized substrate mi
- Inhibition (guaiacol peroxidases; POX, 1,000 μM compound): 3%
- inhibition at 1000 µM [2]: 80%
- Activity (horseradish peroxidase; HRP, 100 μM compound): 251 ± 11 μmols of oxidized substrate mi
- inhibition at 100 µM (horseradish peroxidase; HRP, 100 μM compound): -4%
- Activity (horseradish peroxidase; HRP, 1,000 μM compound): 237 ± 21 μmols of oxidized substrate mi
- inhibition at 1000 µM (horseradish peroxidase; HRP, 1,000 μM compound): 1%
